In the Bradley open melting point set (2014):

Work on `O=C(O)c1ccc(Cl)s1` [5-chlorothiophene-2-carboxylic acid] yielded a melting point of 151 °C.
In the case of `O=C(O)c1ccccc1C(=O)Nc1cccc2ccccc12` [2-(1-Naphthylcarbamoyl)benzoic acid], the melting point is reported as 203 °C.
Work on `CC(C)[C@H](NC(=O)OC(C)(C)C)C(=O)O` [N-boc-L-valine] yielded a melting point of 79 °C.
In the case of `N#Cc1cccc([N+](=O)[O-])c1` [m-nitrobenzonitrile], the melting point is reported as 117 °C.
Work on `CC(=O)OC1CCC2(C)C(CCC3C2CCC2(C)C3CCC2(O)CCc2ccccc2)C1` (stereo unspecified) [17-hydroxy-21-phenylpregnan-3-yl acetate] yielded a melting point of 138 °C.
`O=C(c1ccccc1)C(c1ccccc1)(c1ccccc1)c1ccccc1` [benzopinacolone] gave a melting point of 182 °C.
`O=CC=O` [glyoxal] gave a melting point of 15 °C.
Compound `C=CCCCCCCCC` [Dec-1-ene] has a melting point of -66 °C.
`[O-][n+]1ccc2ccc(Br)cc2c1` [7-bromoisoquinoline n-oxide] gave a melting point of 180 °C.
Work on `Nc1ccc(S(=O)(=O)Nc2nccs2)cc1` [sulfathiazole] yielded a melting point of 202 °C.
In the case of `CCC(C)CCCC(=O)N[C@@H](CCN)C(=O)N[C@H](C(=O)N[C@@H](CCN)C(=O)N[C@H]1CCNC(=O)[C@H]([C@@H](C)O)NC(=O)[C@H](CCN)NC(=O)[C@H](CCN)NC(=O)[C@H](CC(C)C)NC(=O)[C@@H](CC(C)C)NC(=O)[C@H](CCN)NC1=O)[C@@H](C)O` (stereo partly specified) [Colistin], the melting point is reported as 210 °C.
`Cc1ccc([N+](=O)[O-])cc1N` [2-methyl-5-nitroaniline] gave a melting point of 107 °C.
In the case of `O=C(CBr)c1ccc2c(c1)OCCCO2` [7-bromoacetyl-3,4-dihydro-1,5-benzodioxepin], the melting point is reported as 76 °C.
Work on `C(#Cc1ccccc1)c1ccccc1` [diphenylacetylene] yielded a melting point of 60 °C.
Compound `CC(=O)OC(C)=O` [Acetic anhydride] has a melting point of -73 °C.
`CCCCCCCCCCCCc1ccccc1` [Dodecylbenzene] gave a melting point of -7 °C.
Work on `ClCc1ccccc1` [benzyl chloride] yielded a melting point of -43 °C.
In the case of `Cc1ccc(C(C)(C)C)cc1` [1-methyl-4-tert-butylbenzene], the melting point is reported as -53 °C.
Compound `Brc1ccc(Br)cc1` [1,4-dibromobenzene] has a melting point of 88 °C.
Compound `C[C@H]1c2cccc(O)c2C(=O)C2=C(O)[C@]3(O)C(=O)C(C(N)=O)=C(O)[C@@H](N(C)C)[C@@H]3[C@@H](O)[C@@H]21` [Doxycycline] has a melting point of 201 °C.
In the case of `CCCC(=O)CCC` [4-heptanone], the melting point is reported as -33 °C.
`CC1=CCC2C3CCC4CC(=O)CCC4(C)C3CCC12C` (stereo unspecified) [17-methylandrost-16-en-3-one] showed a melting point of 141 °C.
`Oc1cccc(O)c1O` [pyrogallol] showed a melting point of 133 °C.
For `CCOC(=O)C(NC(C)=O)C(=O)OCC` [diethyl acetamidomalonate], the melting point was 98 °C.
Work on `Cc1cc(C=O)cc(C)c1O` [4-hydroxy-3,5-dimethylbenzaldehyde] yielded a melting point of 114 °C.
With `CCC=O` [propionaldehyde] the melting point was -81 °C.
`O=c1[nH]c(=O)n([C@H]2C[C@H](O)[C@@H](CO)O2)cc1F` [Floxuridine] gave a melting point of 150 °C.
`CCCC(=O)Nc1ccc(OCC(O)CNC(C)C)c(C(C)=O)c1` (stereo unspecified) [acebutolol] showed a melting point of 123 °C.
`C/C=C/CCCCC` [trans-2-octene] gave a melting point of -88 °C.
`Oc1cccc(Nc2ccccc2)c1` [3-Anilinophenol] gave a melting point of 81.5 °C.
In the case of `O=C1Nc2ccccc2C[C@H]1c1ccccc1F` [3-(2-Fluorophenyl)-1,2,3,4-tetrahydro-2-quinolone], the melting point is reported as 191 °C.
In the case of `Nc1ccc(C(=O)O)cc1` [4-aminobenzoic acid], the melting point is reported as 188 °C.
`Oc1ccc(F)cc1` [4-fluorophenol] gave a melting point of 46 °C.
`Oc1ccc(Cl)c(Cl)c1` [3,4-Dichlorophenol] showed a melting point of 67 °C.
For `Cc1cc(C)cc(O)c1` [3,5-dimethylphenol], the melting point was 63 °C.
`COc1ccccc1` [Anisole] showed a melting point of -37 °C.
`C[Si](C)(C)Cl` [Chloro(trimethyl)silane] showed a melting point of -58 °C.
`O=[N+]([O-])c1cc(Cl)ccc1Cl` [2,5-dichloronitrobenzene] gave a melting point of 56 °C.
`O=[O+][O-]` [Trioxid-2-en-2-ium-1-ide] showed a melting point of -193 °C.
`C=Cc1ccc(N)cc1` [p-vinylaniline] gave a melting point of 26 °C.
Work on `CC(C)(C)Cl` [2-chloro-2-methylpropane] yielded a melting point of -25 °C.
`Sc1ccc(Cl)cc1` [4-chlorothiophenol] gave a melting point of 50 °C.
`O=C(O)Cc1ccc([N+](=O)[O-])cc1` [4-nitrophenylacetic acid] gave a melting point of 154 °C.
With `C=CC=O` [Acrylaldehyde] the melting point was -87 °C.
For `CC(=O)c1ccc(F)cc1O` [4'-fluoro-2'-hydroxyacetophenone], the melting point was 32 °C.
In the case of `CCCOCCC` [di-n-propyl ether], the melting point is reported as -122 °C.
Work on `C1CCCC1` [Cyclopentane] yielded a melting point of -94 °C.
`NCC(=O)O` [Glycine] gave a melting point of 240 °C.
In the case of `CCOC(=O)c1ccc([N+](=O)[O-])cc1` [ethyl_4-nitrobenzoate], the melting point is reported as 58 °C.
With `CCCCOC(=O)c1ccc(O)cc1` [Butyl 4-hydroxybenzoate] the melting point was 68.5 °C.
In the case of `CCOCCOCCOCC` [diethylene glycol diethyl ether], the melting point is reported as -44 °C.
Compound `N#CCc1ccccc1` [phenylacetonitrile] has a melting point of -24 °C.
Compound `Fc1ccc(N2CCNCC2)cc1` [1-(4-fluorophenyl)piperazine] has a melting point of 32 °C.
`COc1ccc(Br)cc1` [4-bromoanisole] showed a melting point of 11 °C.
With `C(=C\c1cccc(/C=C/c2ccccc2)c1)/c1ccccc1` [1,3-bis[(E)-2-phenylethenyl]benzene] the melting point was 150 °C.
Compound `O=C1c2ccccc2C(=O)N1CBr` [N-(bromomethyl)phthalimide] has a melting point of 147 °C.
In the case of `CC(C)OB(OC(C)C)OC(C)C` [triisopropyl borate], the melting point is reported as -59 °C.
In the case of `Cc1ccc(C(=O)O)cc1C` [3,4-dimethylbenzoic acid], the melting point is reported as 166 °C.
Work on `O=C1CCOc2ccccc21` [4-chromanone] yielded a melting point of 38 °C.
Compound `Cc1cc(C=O)c(C)n1-c1ccc(F)cc1` [OSM-S-02] has a melting point of 118 °C.
`OCC1COc2ccccc2O1` (stereo unspecified) [2-hydroxymethyl-1,4-benzodioxane] showed a melting point of 89 °C.
Compound `COc1ccc(-c2cc(=O)c3c(O)c(OC)c(O)cc3o2)cc1` [5,7-Dihydroxy-6-methoxy-2-(4-methoxyphenyl)-4H-chromen-4-one] has a melting point of 225 °C.
In the case of `Clc1cccc(Cl)c1Cl` [1,2,3-Trichlorobenzene], the melting point is reported as 53 °C.
In the case of `CC(C)C1=CC2=CC[C@@H]3[C@](C)(CCC[C@@]3(C)C(=O)O)[C@H]2CC1` [abietic acid], the melting point is reported as 161 °C.
Compound `CCCCOCCOCCOC(C)=O` [2-(2-n-butoxyethoxy)ethyl acetate] has a melting point of -32 °C.
For `Nc1cccc(C(=O)O)c1` [3-aminobenzoic acid], the melting point was 175 °C.
With `[2H]c1c([2H])c([2H])c2c([2H])c([2H])c([2H])c([2H])c2c1[2H]` [(~2~H_8_)Naphthalene] the melting point was 82 °C.
Work on `C=CCN` [allylamine] yielded a melting point of -88 °C.
In the case of `C(=NNc1ccccc1)C(=NNc1ccccc1)c1cccc(C(C=NNc2ccccc2)=NNc2ccccc2)c1`, the melting point is reported as 165 °C.
`OB(O)c1cc2ccccc2nc1F` [2-fluoroquinoline-3-boronic acid] showed a melting point of 92 °C.
`O=C(O)CCP(=O)(O)O` [3-phosphonopropionic acid] gave a melting point of 164 °C.
Compound `O=C(O)/C(=C/c1ccccc1[N+](=O)[O-])c1ccccc1F` [(E)-2-(2-Fluorophenyl)-3-(2-nitrophenyl)propenoic acid] has a melting point of 212 °C.
`C[C@]12CCC(=O)CC1CCC1=C2CC[C@@H]2C(=O)CC[C@@H]12` (stereo partly specified) [10-methylgon-8-ene-3,17-dione] showed a melting point of 138 °C.
For `Cc1ccc(Cl)c(N)c1` [2-chloro-5-methylaniline], the melting point was 31 °C.
`COC(=O)c1sccc1Cl` [methyl 3-chlorothiophene-2-carboxylate] gave a melting point of 38 °C.
`OB(O)c1ccc(Cl)nc1` [6-chloropyridine-3-boronic acid] gave a melting point of 156 °C.
Compound `Cc1ccc(C(C)(C)C)cc1` [4-tert-butyltoluene] has a melting point of -63 °C.
In the case of `Fc1ccc(-c2cc3ccccc3[nH]2)cc1` [2-(4-fluorophenyl)indole], the melting point is reported as 189 °C.
For `NC(=O)OCC(COC(N)=O)c1ccccc1` [Felbamate], the melting point was 152 °C.
Compound `CCN1CCOCC1` [4-ethylmorpholine] has a melting point of -63 °C.
For `O=C(O)c1ccsc1` [thiophene-3-carboxylic acid], the melting point was 139 °C.
For `Cc1cncc(C(=O)O)c1` [5-methylnicotinic acid], the melting point was 213 °C.
`NNC(=O)c1ccc([N+](=O)[O-])o1` [5-nitro-2-furohydrazide] gave a melting point of 171 °C.
In the case of `CCCBr` [1-bromopropane], the melting point is reported as -110 °C.
`O=[N+]([O-])c1cccc(S(=O)(=O)Cl)c1` [3-nitrobenzenesulfonyl chloride] showed a melting point of 61 °C.
In the case of `CC(C)=CCC/C(C)=C/CC/C(C)=C/CC/C=C(\C)CC/C=C(\C)CCC=C(C)C` [squalene], the melting point is reported as -75 °C.
Compound `O=C(/C=C/c1ccc(O)cc1)c1ccccc1` [4-hydroxychalcone] has a melting point of 184 °C.
Compound `COc1ccc2c(C)cc(=O)[nH]c2c1` [7-methoxy-4-methyl-2(1h)-quinolinone] has a melting point of 206 °C.
`O=C(O)c1cc(Cl)cc(Cl)c1` [3,5-dichlorobenzoic acid] showed a melting point of 186 °C.
Compound `ClC1=C(Cl)[C@]2(Cl)[C@@H]3[C@@H]4C[C@@H]([C@H]5O[C@@H]45)[C@@H]3[C@@]1(Cl)C2(Cl)Cl` has a melting point of 176 °C.
For `Brc1ccccc1Br` [o-dibromobenzene], the melting point was 7 °C.
Work on `CCOC(N)=O` [Ethyl carbamate] yielded a melting point of 49 °C.
`Nc1cccc2c(N)cccc12` [1,5-Naphthalenediamine] showed a melting point of 158 °C.
Work on `Cc1ncc([N+](=O)[O-])n1C` [Dimetridazole] yielded a melting point of 140 °C.
Compound `Cc1ccc(C(C)C)cc1` [1-methyl-4-isopropylbenzene] has a melting point of -68 °C.
Compound `Cc1cccc(N)c1C` [2,3-dimethylaniline] has a melting point of 3 °C.
`ClC1=C(Cl)[C@]2(Cl)C3C(Cl)C(Cl)CC3[C@@]1(Cl)C2(Cl)Cl` (stereo partly specified) showed a melting point of 106 °C.
`Brc1ccccc1I` [1-bromo-2-iodobenzene] showed a melting point of 10 °C.
`CCC(C)c1cc([N+](=O)[O-])cc([N+](=O)[O-])c1O` (stereo unspecified) [2-sec-Butyl-4,6-dinitrophenol] gave a melting point of 55 °C.
`OCCCCCCO` [Hexane-1,6-Diol] gave a melting point of 45 °C.
`CCCCCCCCCCN` [1-aminodecane] showed a melting point of 16 °C.
